The source made the active and inactive calls.
Experiments:
[1] = system: HEK293; assay: cytotoxicity in HEK293T NF-kB-Luc cells, SAR follow-up, cytotoxicity control for NF-kB activator project, cell-based, resazurin fluorescence (AID 493251); assay type: functional; details: Homo sapiens
[2] = system: HEK293; assay: SAR Analysis of small molecule inhibitors of B-cell specific antigen receptor-induced NF-kB activation in a HEK-293T cell line using a luminescence assay - Set 2. [Related pubchem assays (depositor defined):AID435022, AID435025, AID489021]; assay type: functional, cell-based; details: Homo sapiens
[3] = system: Jurkat; assay: SAR Analysis of small molecule inhibitors of […] specific antigen receptor-induced NF-kB activation in a Jurkat cell line using a luminescence assay - Set 3. [Related pubchem assays (depositor defined):AID435022, AID435025, AID465]; assay type: functional, cell-based; details: Homo sapiens
[4] = biological target: T1, Sentrin-specific protease 8 (Homo sapiens, UniProt Q96LD8); assay: SENP8 protease inhibitors, SAR follow-up, biochemical, luminescence (AID 504501); assay type: functional
T1 sequence (Q96LD8 whole entry): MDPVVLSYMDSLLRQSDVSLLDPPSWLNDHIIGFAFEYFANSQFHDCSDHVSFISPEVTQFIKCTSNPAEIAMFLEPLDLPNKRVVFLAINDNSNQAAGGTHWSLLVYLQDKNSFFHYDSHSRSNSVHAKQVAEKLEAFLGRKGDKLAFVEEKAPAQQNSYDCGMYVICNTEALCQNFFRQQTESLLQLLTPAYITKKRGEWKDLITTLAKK

[5] = biological target: T2, Sentrin-specific protease 6 (Homo sapiens, UniProt Q9GZR1); assay: SENP6 protease inhibitors, SAR follow-up, biochemical, luminescence, set 2 (AID 588598); assay type: functional
T2 sequence (Q9GZR1 whole entry): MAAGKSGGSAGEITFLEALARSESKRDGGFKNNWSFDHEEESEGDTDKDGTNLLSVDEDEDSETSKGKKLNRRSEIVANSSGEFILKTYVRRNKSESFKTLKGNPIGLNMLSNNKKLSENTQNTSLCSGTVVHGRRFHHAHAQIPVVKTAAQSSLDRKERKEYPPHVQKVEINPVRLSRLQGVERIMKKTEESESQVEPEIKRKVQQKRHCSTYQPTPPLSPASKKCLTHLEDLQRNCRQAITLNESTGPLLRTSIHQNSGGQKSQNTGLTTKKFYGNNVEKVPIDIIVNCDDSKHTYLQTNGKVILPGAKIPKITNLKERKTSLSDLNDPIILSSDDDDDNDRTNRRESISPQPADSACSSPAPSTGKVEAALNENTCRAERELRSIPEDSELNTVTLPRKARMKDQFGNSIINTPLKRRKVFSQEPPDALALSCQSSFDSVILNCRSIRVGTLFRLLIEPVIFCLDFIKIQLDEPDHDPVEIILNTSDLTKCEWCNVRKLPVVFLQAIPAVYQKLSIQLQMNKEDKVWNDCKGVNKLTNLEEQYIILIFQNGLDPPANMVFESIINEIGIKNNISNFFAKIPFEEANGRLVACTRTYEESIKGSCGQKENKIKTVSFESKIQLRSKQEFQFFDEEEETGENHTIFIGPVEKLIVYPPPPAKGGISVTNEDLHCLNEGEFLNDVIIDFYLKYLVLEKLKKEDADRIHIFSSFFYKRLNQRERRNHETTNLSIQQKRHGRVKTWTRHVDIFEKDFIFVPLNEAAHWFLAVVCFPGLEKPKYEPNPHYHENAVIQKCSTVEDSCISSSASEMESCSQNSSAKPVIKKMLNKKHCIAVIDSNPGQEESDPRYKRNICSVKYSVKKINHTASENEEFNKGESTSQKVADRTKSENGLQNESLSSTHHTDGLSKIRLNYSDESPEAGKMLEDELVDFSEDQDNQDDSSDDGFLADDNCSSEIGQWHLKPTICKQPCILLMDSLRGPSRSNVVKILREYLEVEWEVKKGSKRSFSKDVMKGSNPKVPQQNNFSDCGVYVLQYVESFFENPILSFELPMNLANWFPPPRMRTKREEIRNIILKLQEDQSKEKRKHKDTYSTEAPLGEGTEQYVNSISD

[6] = biological target: T3, Sentrin-specific protease 7 (Homo sapiens, UniProt Q9BQF6); assay: SENP7 protease inhibitors, SAR follow-up, biochemical, luminescence, set 2 (AID 588600); assay type: functional
T3 sequence (Q9BQF6 whole entry): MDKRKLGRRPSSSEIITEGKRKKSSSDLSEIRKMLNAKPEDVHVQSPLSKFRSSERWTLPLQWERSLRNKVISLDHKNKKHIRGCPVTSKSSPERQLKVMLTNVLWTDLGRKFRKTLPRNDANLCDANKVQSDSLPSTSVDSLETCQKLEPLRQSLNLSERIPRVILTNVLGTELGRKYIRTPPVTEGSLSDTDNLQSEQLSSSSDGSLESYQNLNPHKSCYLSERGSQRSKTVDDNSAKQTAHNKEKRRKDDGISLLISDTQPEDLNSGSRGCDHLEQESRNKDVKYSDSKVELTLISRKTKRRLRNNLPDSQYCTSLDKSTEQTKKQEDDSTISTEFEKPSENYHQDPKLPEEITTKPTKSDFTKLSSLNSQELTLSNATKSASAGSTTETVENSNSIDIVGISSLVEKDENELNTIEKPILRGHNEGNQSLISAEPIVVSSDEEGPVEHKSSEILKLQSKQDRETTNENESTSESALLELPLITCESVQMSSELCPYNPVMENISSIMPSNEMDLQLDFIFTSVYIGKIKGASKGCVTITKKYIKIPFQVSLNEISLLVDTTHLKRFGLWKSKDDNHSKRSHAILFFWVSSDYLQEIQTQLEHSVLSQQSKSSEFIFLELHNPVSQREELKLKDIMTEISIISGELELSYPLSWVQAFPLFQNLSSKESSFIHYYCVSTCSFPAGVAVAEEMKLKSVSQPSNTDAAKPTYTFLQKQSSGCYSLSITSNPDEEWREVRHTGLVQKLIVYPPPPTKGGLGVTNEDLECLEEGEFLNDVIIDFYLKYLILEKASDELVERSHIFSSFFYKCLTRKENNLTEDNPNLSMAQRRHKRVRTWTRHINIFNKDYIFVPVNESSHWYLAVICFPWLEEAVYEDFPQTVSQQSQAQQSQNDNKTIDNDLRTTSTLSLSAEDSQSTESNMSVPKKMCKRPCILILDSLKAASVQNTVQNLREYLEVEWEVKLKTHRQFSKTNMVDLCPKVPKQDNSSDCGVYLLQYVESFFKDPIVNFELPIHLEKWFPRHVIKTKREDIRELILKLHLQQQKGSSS

[7] = biological target: T4, Caspase-3 (Homo sapiens, UniProt P42574); assay: caspase-3 inhibitors as off-family protease, SAR follow-up, selectivity assay for SENP protease inhibitor project, biochemical, luminescence, set 2 (AID 588599); assay type: functional
T4 sequence (P42574 whole entry): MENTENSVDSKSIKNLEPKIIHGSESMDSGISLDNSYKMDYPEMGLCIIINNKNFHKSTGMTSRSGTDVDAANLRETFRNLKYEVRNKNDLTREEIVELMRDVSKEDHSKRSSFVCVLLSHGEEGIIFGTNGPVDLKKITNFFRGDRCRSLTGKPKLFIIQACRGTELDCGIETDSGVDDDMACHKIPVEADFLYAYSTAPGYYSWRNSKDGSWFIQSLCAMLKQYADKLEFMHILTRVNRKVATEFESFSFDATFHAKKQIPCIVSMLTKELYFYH

[8] = biological target: T3, Sentrin-specific protease 7; assay: SENP7 protease inhibitors, SAR follow-up, biochemical, luminescence (AID 504497); assay type: functional
[9] = biological target: T1, Sentrin-specific protease 8; assay: SENP8 protease inhibitors, SAR follow-up, biochemical, luminescence, set 2 (AID 588601); assay type: functional
[10] = biological target: T4, Caspase-3; assay: SAR Analysis of small molecule inhibitors of Sentrin-specific proteases (SENPs) using a Caspase-3 Selectivity assay. [Related pubchem assays (depositor defined):AID2540, AID2599, AID434973, AID489001]; assay type: functional
[11] = biological target: T2, Sentrin-specific protease 6; assay: SAR Analysis of small molecule inhibitors of Sentrin-specific protease 6 (SENP6) using a Luminescent assay. [Related pubchem assays (depositor defined):AID2582, AID2599]; assay type: functional
[12] = biological target: Cysteine protease ATG4B (Homo sapiens, UniProt Q9Y4P1); assay type: functional;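 also: Fluorescence-based dose-response confirmation assay measuring inhibition of ATG4B activity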
Sequence of Cysteine protease ATG4B (Q9Y4P1 whole entry): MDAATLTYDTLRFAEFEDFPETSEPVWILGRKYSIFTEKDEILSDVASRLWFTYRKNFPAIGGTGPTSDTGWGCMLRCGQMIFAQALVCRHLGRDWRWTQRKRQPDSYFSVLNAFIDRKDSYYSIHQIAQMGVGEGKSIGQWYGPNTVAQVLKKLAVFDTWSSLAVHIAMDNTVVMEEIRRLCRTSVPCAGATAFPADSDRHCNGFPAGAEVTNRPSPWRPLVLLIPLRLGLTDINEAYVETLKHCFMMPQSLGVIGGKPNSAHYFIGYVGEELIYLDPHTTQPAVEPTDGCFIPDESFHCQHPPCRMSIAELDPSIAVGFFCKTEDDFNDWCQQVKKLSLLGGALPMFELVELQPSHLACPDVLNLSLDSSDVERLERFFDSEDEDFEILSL

[13] = biological target: Phospholipase A2 (Homo sapiens, UniProt P04054); assay type: functional;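 also: confirmatory dose-response counterscreen on phospholipase A2, testing hits that came from an ultra-high-throughput screen for ATG4B inhibitors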
Sequence of Phospholipase A2 (P04054 whole entry): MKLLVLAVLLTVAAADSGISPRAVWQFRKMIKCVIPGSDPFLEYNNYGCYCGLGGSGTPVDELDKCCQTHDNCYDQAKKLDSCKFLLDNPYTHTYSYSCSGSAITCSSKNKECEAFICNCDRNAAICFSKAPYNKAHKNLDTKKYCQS

[14] = biological target: Nonstructural protein 1 (Influenza A virus, UniProt Q194T2); assay type: functional, Influenza A virus (A/California/07/2009(H1N1))
Sequence of Nonstructural protein 1 (Q194T2 whole entry): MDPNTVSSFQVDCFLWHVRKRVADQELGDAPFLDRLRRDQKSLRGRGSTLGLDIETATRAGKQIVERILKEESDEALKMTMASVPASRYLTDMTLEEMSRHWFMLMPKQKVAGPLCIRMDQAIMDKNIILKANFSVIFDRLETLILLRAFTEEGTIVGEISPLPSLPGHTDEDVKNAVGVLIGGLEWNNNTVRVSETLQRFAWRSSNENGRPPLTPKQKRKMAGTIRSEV

[15] = biological target: Lysine-specific demethylase 4C (Homo sapiens, UniProt Q9H3R0); assay: GASC-1 (JMJD2C) histone demethylase inhibitors, dose response, biochemical, DELFIA europium, cherry-picked samples (AID 488835); assay type: functional
[16] = biological target: Apoptotic protease-activating factor 1 (Homo sapiens, UniProt O14727); assay type: functional
Sequence of Apoptotic protease-activating factor 1 (O14727 whole entry): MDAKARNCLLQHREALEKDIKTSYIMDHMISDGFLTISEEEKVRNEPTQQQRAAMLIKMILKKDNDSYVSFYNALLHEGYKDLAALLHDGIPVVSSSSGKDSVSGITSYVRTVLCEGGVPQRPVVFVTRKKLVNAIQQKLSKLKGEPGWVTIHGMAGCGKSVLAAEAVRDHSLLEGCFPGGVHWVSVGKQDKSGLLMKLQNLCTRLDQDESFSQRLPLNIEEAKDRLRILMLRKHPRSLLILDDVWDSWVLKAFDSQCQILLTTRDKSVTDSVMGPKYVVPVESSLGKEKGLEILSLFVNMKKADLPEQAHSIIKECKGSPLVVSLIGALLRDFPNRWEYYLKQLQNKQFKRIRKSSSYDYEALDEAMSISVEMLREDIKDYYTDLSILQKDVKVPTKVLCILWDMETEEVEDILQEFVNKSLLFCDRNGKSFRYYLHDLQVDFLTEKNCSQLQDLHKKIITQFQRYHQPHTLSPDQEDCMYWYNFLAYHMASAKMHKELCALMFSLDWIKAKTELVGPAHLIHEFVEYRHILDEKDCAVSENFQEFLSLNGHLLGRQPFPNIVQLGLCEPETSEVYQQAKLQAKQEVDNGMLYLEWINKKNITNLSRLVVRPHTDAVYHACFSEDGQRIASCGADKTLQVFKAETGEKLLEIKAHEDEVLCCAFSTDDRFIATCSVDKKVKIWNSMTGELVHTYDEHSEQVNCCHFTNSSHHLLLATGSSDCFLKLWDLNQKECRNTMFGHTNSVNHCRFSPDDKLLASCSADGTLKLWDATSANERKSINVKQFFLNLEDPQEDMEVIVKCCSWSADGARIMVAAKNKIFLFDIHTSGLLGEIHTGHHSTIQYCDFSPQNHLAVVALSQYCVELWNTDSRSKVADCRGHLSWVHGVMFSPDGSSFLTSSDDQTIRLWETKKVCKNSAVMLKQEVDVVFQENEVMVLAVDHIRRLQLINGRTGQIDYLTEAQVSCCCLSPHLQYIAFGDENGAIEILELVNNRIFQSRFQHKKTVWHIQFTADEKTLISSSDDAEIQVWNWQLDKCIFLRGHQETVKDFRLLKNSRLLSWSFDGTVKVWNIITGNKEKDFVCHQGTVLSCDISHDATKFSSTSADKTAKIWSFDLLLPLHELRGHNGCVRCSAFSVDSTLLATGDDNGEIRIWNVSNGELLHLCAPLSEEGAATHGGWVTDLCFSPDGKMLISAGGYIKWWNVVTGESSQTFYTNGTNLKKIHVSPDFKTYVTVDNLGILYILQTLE

[17] = biological target: Sphingosine 1-phosphate receptor 4 (Homo sapiens, UniProt O95977); assay: Fluorescence dose response cell-based high throughput screening assay for antagonists of the Sphingosine 1-Phosphate Receptor 4 (S1P4). [Related pubchem assays: 1524 (Confirmation in triplicates.), 1510 (Primary screen.)]; assay type: functional
Sequence of Sphingosine 1-phosphate receptor 4 (O95977 whole entry): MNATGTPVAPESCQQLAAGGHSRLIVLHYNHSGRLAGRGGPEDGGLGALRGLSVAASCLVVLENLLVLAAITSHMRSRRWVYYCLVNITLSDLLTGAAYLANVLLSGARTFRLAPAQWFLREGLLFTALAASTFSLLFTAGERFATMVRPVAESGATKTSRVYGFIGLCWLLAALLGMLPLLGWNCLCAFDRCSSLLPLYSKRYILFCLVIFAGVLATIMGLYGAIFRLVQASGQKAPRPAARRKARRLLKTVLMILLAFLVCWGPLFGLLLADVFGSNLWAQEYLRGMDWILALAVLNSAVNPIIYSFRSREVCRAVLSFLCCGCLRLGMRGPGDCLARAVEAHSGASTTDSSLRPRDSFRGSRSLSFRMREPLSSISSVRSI

[18] = Luminescence Cell-Based Dose Response HTS to Identify Inhibitors of 5'UTR Stem-Loop Driven Prion Protein mRNA Translation in H4 Neuroglioblastoma Cells. [Related pubchem assays: 1827 (Project Summary), 1813 (Primary HTS)]; assay type: functional
[19] = control 3'UTR Renilla luciferase suppression, dose response, counter-screen for Shn3 inhibitor project, cell-based, Clone20-Shn3RL, cherry-picked (AID 624133); assay type: functional
[20] = inhibitors of firefly luciferase expression or activity, dose response, H4 neuroglioma cells, luminescence (AID 1990); assay type: functional, cell-based
[21] = biological target: Beta-2 adrenergic receptor (Homo sapiens, UniProt P07550); assay: beta2AR agonists driving receptor internalization, dose response, cell-based, FAP fluorogen, flow cytometry, cherry pick 1 (AID 588763); assay type: functional
Sequence of Beta-2 adrenergic receptor (P07550 whole entry): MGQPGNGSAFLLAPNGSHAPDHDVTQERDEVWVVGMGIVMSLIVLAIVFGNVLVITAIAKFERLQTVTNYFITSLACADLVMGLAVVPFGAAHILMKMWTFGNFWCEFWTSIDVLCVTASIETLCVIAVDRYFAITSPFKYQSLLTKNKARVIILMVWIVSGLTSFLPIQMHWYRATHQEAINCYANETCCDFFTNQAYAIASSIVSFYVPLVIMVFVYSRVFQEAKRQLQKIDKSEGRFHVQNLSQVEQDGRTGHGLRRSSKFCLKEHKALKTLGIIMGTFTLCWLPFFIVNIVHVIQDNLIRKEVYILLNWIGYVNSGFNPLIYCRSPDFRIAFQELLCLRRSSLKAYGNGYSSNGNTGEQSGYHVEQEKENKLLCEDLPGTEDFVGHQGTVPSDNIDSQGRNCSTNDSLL

[22] = system: HEK293; assay: cells; assay type: functional, cell-based; details: Homo sapiens
[23] = Shn3 3'UTR reporter inhibitors, dose response, cell-based, Clone20 osteoblasts, firefly luciferase, cherry-picked (AID 624132); assay type: functional;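 also: firefly luciferase luminescence from reporter carrying the Shn3 3'UTR in osteoblasts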
[24] = HepG2 cell cytotoxicity, dose response, cytotoxicity control for Shn3 inhibitor project, CellTiter-Glo, cherry-picked (AID 624134); assay type: functional, cell-based
[25] = system: HEK293; assay: NOD2 signaling inhibitors in MDP-stimulated cells, cell-based, uHTS, luminescence (AID 2001); assay type: functional; details: Homo sapiens
[26] = system: HEK293; assay: NOD1 signaling inhibitors, primary screen, cell-based, luminescence, uHTS (AID 1578); assay type: functional; details: Homo sapiens
[27] = system: HEK293; assay: cells; assay type: functional, cell-based; details: Homo sapiens; remark: listed apart in the source
[28] = system: INS1; assay: beta cell apoptosis inhibitors, cytokine rescue, dose response, luminescence, retest (AID 449756); assay type: functional, cell-based; details: Rattus norvegicus;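 also: cell death triggered by IL-1 beta plus TNF-alpha plus IFN-gamma mixture; protective hits raise ATP signal compared with cytokine alone wells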
[29] = growth suppression of PTEN-null colon cells, dose response, cell-based, HCT116 PTEN knockout (AID 1047); assay type: functional;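 also: HCT116 colon tumor cells with PTEN knocked out; cells exposed to compound for 60 hours before readout; potency for loss of cell viability measured by luminescence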
[30] = system: HEK293; assay: cells; assay type: functional, cell-based; details: Homo sapiens; remark: listed apart in the source
[31] = biological target: Sphingosine 1-phosphate receptor 1 (Homo sapiens, UniProt P21453); assay type: functional;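 also: Tango beta-arrestin reporter U2OS cells stimulated with S1P near its EC80; inhibitor potency meaning antagonism of receptor activation by the natural agonist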
Sequence of Sphingosine 1-phosphate receptor 1 (P21453 whole entry): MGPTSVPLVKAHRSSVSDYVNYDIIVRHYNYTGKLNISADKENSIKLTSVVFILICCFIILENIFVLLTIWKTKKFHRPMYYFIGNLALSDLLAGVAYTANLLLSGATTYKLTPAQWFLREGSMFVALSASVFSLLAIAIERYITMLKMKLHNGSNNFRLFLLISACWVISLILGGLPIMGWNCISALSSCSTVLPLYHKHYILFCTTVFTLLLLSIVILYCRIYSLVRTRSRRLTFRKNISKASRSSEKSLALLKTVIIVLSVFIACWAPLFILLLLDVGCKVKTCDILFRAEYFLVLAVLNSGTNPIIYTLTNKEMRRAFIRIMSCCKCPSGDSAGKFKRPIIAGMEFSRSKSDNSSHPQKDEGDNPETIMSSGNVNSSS

[32] = inhibitors of SNCA 5'UTR-driven reporter translation, confirmation, H4 neuroglioma cells, luminescence (AID 1988); assay type: functional, cell-based
[33] = biological target: Nucleotide-binding oligomerization domain-containing protein 2 (Homo sapiens, UniProt Q9HC29); assay: NOD2 signaling inhibitors, cell-based, luminescence, uHTS, HEK293 (AID 1566); assay type: functional
Sequence of Nucleotide-binding oligomerization domain-containing protein 2 (Q9HC29 whole entry, the tested form may be a part): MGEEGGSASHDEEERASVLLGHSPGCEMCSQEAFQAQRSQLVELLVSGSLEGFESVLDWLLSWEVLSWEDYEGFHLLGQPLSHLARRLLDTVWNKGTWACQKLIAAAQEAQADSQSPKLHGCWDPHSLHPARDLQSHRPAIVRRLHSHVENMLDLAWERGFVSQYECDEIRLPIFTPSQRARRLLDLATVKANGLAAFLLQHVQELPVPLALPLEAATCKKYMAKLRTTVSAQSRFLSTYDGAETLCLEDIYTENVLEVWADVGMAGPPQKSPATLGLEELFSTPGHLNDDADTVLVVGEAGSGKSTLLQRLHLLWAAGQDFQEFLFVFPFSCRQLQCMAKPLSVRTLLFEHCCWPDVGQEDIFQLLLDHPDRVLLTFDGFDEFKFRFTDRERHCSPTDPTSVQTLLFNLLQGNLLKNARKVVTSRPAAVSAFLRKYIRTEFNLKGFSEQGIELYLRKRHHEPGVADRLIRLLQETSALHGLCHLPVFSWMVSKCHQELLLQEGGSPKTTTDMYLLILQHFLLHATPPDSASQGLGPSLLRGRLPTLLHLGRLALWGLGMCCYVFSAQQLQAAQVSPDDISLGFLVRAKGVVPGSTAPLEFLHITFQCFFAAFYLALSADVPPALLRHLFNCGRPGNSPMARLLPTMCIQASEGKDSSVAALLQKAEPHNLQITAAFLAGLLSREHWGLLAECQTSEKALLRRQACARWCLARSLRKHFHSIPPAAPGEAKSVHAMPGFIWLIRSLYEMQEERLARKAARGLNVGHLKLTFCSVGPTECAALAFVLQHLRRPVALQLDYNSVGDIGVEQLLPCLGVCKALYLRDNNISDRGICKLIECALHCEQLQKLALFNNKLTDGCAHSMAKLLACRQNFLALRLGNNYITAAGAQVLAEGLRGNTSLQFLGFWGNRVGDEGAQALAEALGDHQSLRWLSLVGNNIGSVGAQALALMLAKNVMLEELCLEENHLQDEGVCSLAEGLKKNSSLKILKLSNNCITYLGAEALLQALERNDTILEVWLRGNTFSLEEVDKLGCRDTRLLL

[34] = growth suppression of beta-catenin-knockout colon cells, dose response, cell-based, HCT116, human colon tumor (AID 1045); assay type: functional;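 also: HCT116 colon tumor cells with beta catenin knocked out; cells exposed to compound for 60 hours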
[35] = inhibitors of PGC1a acetylation in cells, dose response, cell-based, cherry-picked samples (AID 720514); assay type: functional;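 also: potency may reflect raised or lowered acetylation signal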
[36] = biological target: T5, Beta-adrenergic receptor kinase 1 (Homo sapiens, UniProt P25098); assay: GRK2 inhibitors displacing RNA aptamer, dose response, biochemical, flow cytometry beads, FAM-aptamer, powder set 1 (AID 588720)
T5 sequence (P25098 whole entry): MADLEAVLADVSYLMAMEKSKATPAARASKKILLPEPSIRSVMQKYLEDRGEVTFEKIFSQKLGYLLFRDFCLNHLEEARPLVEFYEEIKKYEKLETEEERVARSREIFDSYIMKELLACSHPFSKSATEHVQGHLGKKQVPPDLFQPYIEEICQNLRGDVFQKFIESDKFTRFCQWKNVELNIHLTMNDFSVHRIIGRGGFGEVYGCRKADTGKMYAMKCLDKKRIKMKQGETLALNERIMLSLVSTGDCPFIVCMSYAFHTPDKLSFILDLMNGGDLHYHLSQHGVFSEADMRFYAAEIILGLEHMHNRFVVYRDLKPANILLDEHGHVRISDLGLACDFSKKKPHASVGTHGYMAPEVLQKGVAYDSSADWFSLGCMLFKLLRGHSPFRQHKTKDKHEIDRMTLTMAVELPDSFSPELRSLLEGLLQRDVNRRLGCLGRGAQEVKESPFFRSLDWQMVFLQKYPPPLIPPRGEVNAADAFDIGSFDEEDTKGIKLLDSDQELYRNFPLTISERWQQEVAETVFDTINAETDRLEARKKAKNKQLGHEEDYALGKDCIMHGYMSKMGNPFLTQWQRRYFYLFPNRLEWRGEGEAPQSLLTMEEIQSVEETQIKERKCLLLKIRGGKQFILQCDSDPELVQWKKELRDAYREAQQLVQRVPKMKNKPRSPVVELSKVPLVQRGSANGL

[37] = biological target: T5, Beta-adrenergic receptor kinase 1; assay: aptamer displacement from bead-bound GRK2 – biochemical, cherry pick 1, bead flow cytometry, dose response (AID 504500)

In the case of `CCOc1ccc(-c2nc(CSCC(=O)NCCC3=CCCCC3)c(C)o2)cc1`, the IC50 [1] is reported as 42.4 µM (inactive), the IC50 [2] is reported as 17.6 µM (active) and the IC50 [3] is reported as 9.13 µM (active).
With `CCCCc1ccc2nc(NC(=O)c3cccs3)sc2c1` the IC50 [4] was 2.1 µM (active), the IC50 [5] was 2.04 µM (active) and the IC50 [6] was 2.22 µM (active). For the same compound, the IC50 [7] was 4.01 µM (active), the IC50 [8] was 1.5 µM (active) and the IC50 [9] was 2.07 µM (active). For the same compound, the IC50 [10] was 4.4 µM (active) and the IC50 [11] was 1.9 µM (active).
For `COCCNC(=O)/C(C#N)=C/c1c(N2CCN(c3ccccc3)CC2)nc2c(C)cccn2c1=O`, the IC50 [12] was 14.7 µM (active), the IC50 [13] was 9.79 µM (active) and the IC50 [14] was > 100 µM (active).
For `Oc1cc(N/N=C/c2ccccc2)nc(O)n1`, the AC50 [15] was 8.88 µM (active) and the IC50 [16] was 20 µM (active).
For `Cc1ccc(-c2nc(NC(=O)c3nn(C)cc3[N+](=O)[O-])sc2C)cc1`, the IC50 [17] was 1.07 µM (active), the EC50 [18] was 5.05 µM (active) and the AC50 [19] was 6.15 µM (active). For the same compound, the EC50 [20] was 5.46 µM (active), the EC50 [21] was 8.09 µM (active) and the IC50 [22] was 2.48 µM (active). The AC50 [23] was 1.3 µM (active), the AC50 [24] was 26.8 µM (active) and the IC50 [25] was 2.14 µM (active). For the same compound, the EC50 [26] was 5.58 µM (active), the IC50 [27] was > 20 µM (inactive) and the AC50 [28] was 5.22 µM (active). The EC50 [29] was 0.4 µM (active), the IC50 [30] was 14.7 µM (active) and the IC50 [31] was 21 µM (not active). For the same compound, the EC50 [32] was 1.84 µM (active), the EC50 [33] was 3 µM (active) and the EC50 [34] was 0.321 µM (active). For the same compound, the AC50 [35] was 3.81 µM (active).
For `COc1ccc(CNC(=O)CCS(=O)(=O)c2ccc(Br)cc2)cc1`, the EC50 [36] was 3 µM (active) and the EC50 [37] was 0.7 µM (active).
